Measured values reported in patent publication US5763673A, “Diarylheptanoide derivative and pharmaceutical composition comprising the same” (Kabushiki Kaisha Yakult Honsha, priority 1994, dated 1998).

Tests used:
[1] = system: TPA induced edematization in ears; test: Ear edema induction test with TPA (12-O-tetradecanoylphorbol-13-acetate); assay type: in vivo, ICR male mouse; settings: 0.5 mg/ear; for Rate of inhibition (%): 4 h after TPA, relative to rate of edematization of control group taken as 100; for Rate of edematization (%): both sides of right ear, 4 h after TPA (10 μl of 40 μg/ml), control group 161.1
Description: Four hours after the application of TPA, the center of right and left ears was cut out with a punch with a diameter of 6.5 mm to measure the weights. The rate of edematization of ears was calculated according to the following formula: [formula] The rate of edema enlargement inhibition was determined taking the rate of edematization of the control group to which no compound was applied as 100.

5-lipoxygenase [2] = settings: background, as reported; cited from earlier work
5-lipoxygenase [3] = test: 5-Lipoxygenase inhibiting activity (5-HETE production); assay type: biochemical, rat; settings: RBL-1 5-lipoxygenase; 5-HETE by HPLC; values only in FIG. 1
Description: A sample of 5-lipoxygenase was prepared from basophilic leukemia cells of rat (RBL-1). First, the RBL-1 was cultured in an MEM medium (manufactured by Nissui Pharmaceutical Co.) containing 0.0292% of L-glutamine and 10% of FCS under conditions of 5% CO2 and at 37° C. for 3 days. After culture, the cells were collected by centrifuge (1000 rpm, 10 min., 4° C.) and washed twice with Dulbeccol's PBS (-) (manufactured by Nissui Pharmaceutical Co.) . The cells were suspended in 50 ml of Tris-HCl buffer (pH 7.4) at a concentration of 7.5×10^7 cells/ml. The cell suspension was ultrasonically treated in an ice bath and centrifuged (1300 rpm, 30 min., 4° C.) to obtain a 5- lipoxygenase sample as supernatant.
76 μl of 50 mM Tris-HCl buffer (pH 7.4) containing 2.56 mM of CaCl2 and 2.56 mM of ATP and 20 μl of 5-lipoxygenase sample prepared above were added to 2μl of a solution containing a prescribed amount of the diarylheptanoide derivative (1) prepared in Example 1 in DSMO. The mixture was incubated at 37° C. […] The amount of 5-HETE in the supernatant was measured by HPLC (column: Nova-pak 5C18; eluant: a 60:40 acetonitrile:0.05 M KH2 PO4 solution with 5 mM trihexyl bromide added; flow rate: 0.8 ml/min.; wavelength: 235 nm). The amount of 5-HETE produced was calculated from the peak area of the 5-HETE. […]

ears of mice = test: Toxicity on application to ears of mice; assay type: in vivo; settings: 5 mg/ear, 10 times the effective concentration

SMILES	Rate of inhibition (%) [1]	Rate of edematization (%) [1]	5-lipoxygenase inhibiting activity (in words) (5-lipoxygenase [2])	5-lipoxygenase inhibiting effect (in words) (5-lipoxygenase [3])	effect compared with comparative compound (6) (in words) [1]	effect for inhibiting TPA induced edematization in ears (in words) [1]	toxicity (in words) (ears of mice)
O=C(C=Cc1ccc(O)c(O)c1)CCCCc1ccccc1 [(6), 1-(3,4-dihydroxyphenyl)-7-phenyl-1-heptene-3-one, reference compound]	84.5%	24.9%	most strong 5-lipoxygenase inhibiting action	–	–	–	–
COc1cc(C=CC(=O)CCCCc2ccccc2)cc(OC)c1O [Compound (1), 1-(3,5-dimethoxy-4-hydroxyphenyl)-7-phenyl-1-heptene-3-one]	96.1%	6.3%	–	strong 5-lipoxygenase inhibiting effect	stronger than that of the comparative compound	strong effect for inhibiting TPA induced edematization in ears	No toxicity was exhibited
COc1cc(CCC(=O)CCCCc2ccccc2)ccc1O [Yakuchinone-A]	–	–	exhibiting a 5-lipoxygenase inhibiting activity	–	–	–	–
COc1cc(/C=C/C(=O)CCCCc2ccccc2)ccc1O [Yakuchinone-B]	–	–	exhibiting a 5-lipoxygenase inhibiting activity	–	–	–	–
